35 compounds from PubChem BioAssay AID449750 (Broad Institute, 2010) can be followed below.

Activity calls are given as the source filed them. No rule for the calls is given here.

The assay can be described thus: non-covalent RecA intein splicing inhibitors, dose response, biochemical, cell-free, fluorescence, secondary screen (AID 449750).
With `CSc1nnc(NC(=O)c2nc(S(=O)(=O)Cc3cccc(C)c3)ncc2Cl)s1`, the AC50 was > 38 µM (inactive).

With `COc1cccc(-n2nnnc2S(C)(=O)=O)c1`, the AC50 is > 38 µM (inactive).

For `Cc1cccc(CS(=O)(=O)c2ncc(Cl)c(C(=O)Nc3c(C)cccc3C)n2)c1`, the AC50 is > 38 µM (inactive).

For the compound `COC(=O)Cc1[nH]nc2c1C(c1c[nH]c3ccccc13)C(C#N)=C(N)O2` (stereo not given), the AC50 was > 38 µM (inactive).

For `CCN(CC)CCNC(=O)c1ccc2c(c1NCCO)C(=O)c1ccccc1C2=O`, the AC50 was 13.1 µM.

Turning to `CC1=NN(c2ccccc2)C(=O)/C1=C/c1cccc(C)c1`, the AC50 is 4.14 µM.

Consider `COc1ccc(OC)c(Nc2cc3ccccc3c(=O)[nH]2)c1`, for which the half-maximal activity concentration (AC50) is 1.92 µM.

Regarding `Cc1cc(=O)n(-c2ccccc2Cl)[nH]1`, the concentration at half-maximal activity (AC50) is 22.3 µM.

Consider `O=C(c1cc(F)c(F)cc1Cl)N1CCN(c2ccc([N+](=O)[O-])c3ncccc23)CC1`, for which the AC50 was > 38 µM (inactive).

On to `CC(NC(=O)COC(=O)c1cc(NS(=O)(=O)c2ccc(Cl)c([N+](=O)[O-])c2)ccc1O)C1CC2CCC1C2` (stereo not given), for which the concentration at half-maximal activity (AC50) is 1.67 µM.

With `Cc1ccccc1CS(=O)(=O)c1nnc([C@H](Cc2ccccc2)NC(=O)OC(C)(C)C)o1`, the AC50 is > 38 µM (inactive).

On to `Cc1[nH]n(-c2ccccc2)c(=O)c1C(C[N+](=O)[O-])c1ccc(Cl)cc1` (stereo not given), for which the AC50 was 8.62 µM.

In the case of `Cc1nc([N+](=O)[O-])c(Sc2nc3ccccc3[nH]2)n1Cc1ccccc1`, the AC50 was > 38 µM (inactive).

Consider `COc1ccc(C2NC(=O)NC3=C2CCc2ccccc23)cc1` (stereo not given), for which the AC50 is > 38 µM (inactive).

`CCc1nnc(NC(=O)c2nc(S(=O)(=O)Cc3cccc(C)c3)ncc2Cl)s1`: the AC50 is > 38 µM (inactive).

Consider `O=C(Oc1ccc(Br)cc1C(=S)N1CCOCC1)c1cccc([N+](=O)[O-])c1`, for which the AC50 was > 38 µM (inactive).

On to `COC(=O)[C@@H]1[C@@H](C(=O)OC)C2(c3ccccc3-c3ccccc32)N(c2ccc(Cl)cc2)N1C#N`, for which the AC50 was 34.3 µM.

As for `Cc1ccc(Nc2cc(C)nn2-c2nc(C)cc(=O)[nH]2)cc1`, the half-maximal activity concentration (AC50) is 5.05 µM.

Turning to `CS(=O)(=O)c1nc([N+](=O)[O-])nn1CCCc1ccccc1`, the AC50 was 10.7 µM.

Consider `COc1ccc(C(=O)c2c(C(F)(F)F)oc3c2C(=O)c2ccccc2C3=O)cc1`, for which the AC50 was 0.93 µM.

Consider `O=S(=O)(N[C@H]1C[C@@H](NS(=O)(=O)OCC(Cl)(Cl)Cl)C2CCCCC21)OCC(Cl)(Cl)Cl` (stereo not given in full), for which the AC50 is 3.37 µM.

With `O=C1C(Cl)=C(NCCN2CCCCC2)C(=O)c2ccccc21`, the half-maximal activity concentration (AC50) is 13.3 µM.

Take `O=C(CCN1C(=O)/C(=C/c2cccs2)SC1=S)Nc1ccc(C(=O)O)c(O)c1`: the half-maximal activity concentration (AC50) was 19 µM.

On to `COc1cc(/C=C/c2cc[n+](C)cc2)ccc1OCC(=O)Nc1ccc(Cl)c(Cl)c1`, for which the AC50 was > 38 µM (inactive).

Regarding `COC(=O)c1sc(-c2ccc(Cl)cc2)cc1NC(=O)/C=C/C(=O)O`, the AC50 was 9.69 µM.

As for `COc1ccc(/C=C2/C(=O)N(c3ccccc3)N=C2C)cc1`, the AC50 is 5.27 µM.

Turning to `CCCCOP(=O)(OCCCC)C1(NS(=O)(=O)c2ccccc2)C=CC(=O)c2ccccc21` (stereo not given), the AC50 is 9.07 µM.

In the case of `O=S(=O)(Nc1c(O)ccc2ccccc12)c1ccc(F)cc1`, the half-maximal activity concentration (AC50) is 13.3 µM.

As for `O=C1c2cc([N+](=O)[O-])ccc2-c2ncccc21`, the AC50 was > 38 µM (inactive).

In the case of `Cc1[nH]nc2c1C(c1cccc(OC(=O)N3CCOCC3)c1)C(C#N)=C(N)O2` (stereo not given), the AC50 was > 38 µM (inactive).

For `Cc1onc(-c2ccccc2)c1-c1nc2ccccc2c(=O)o1`, the AC50 is > 38 µM (inactive).

Turning to `CCCCn1c(N)c(C(=O)NCc2cccs2)c2nc3ccccc3nc21`, the AC50 is > 38 µM (inactive).

`CC1=NNC(=O)C1Cc1ccccc1C` (stereo not given): the AC50 is > 38 µM (inactive).

With `CC1CCc2c(c3ccccc3n2C(=O)CCl)C1` (stereo not given), the half-maximal activity concentration (AC50) is 6.54 µM.

With `Cc1ccc2c(c1)c1c(n2CC(O)CN2CCCCCC2)CCCC1` (stereo not given), the AC50 was > 38 µM (inactive).
